Literature values, collected in patent publication US9433208B2, “Crop oil concentrate adjuvants containing amine surfactants” (Huntsman Petrochemical LLC, priority 2004, dated 2016).
Read-outs that look alike come from different tables or passages of the source.

In the case of `CNC(=O)CSP(=S)(OC)OC` [Cygon, dimethoate], the “time to lose 50 percent of its pest control power” value (mixed in water of pH 9) is listed as 48 min and the “time to lose 50 percent of its pest control power” value (pH of 6) is listed as 720 min.
